Measurements published in paper PMC6437697 (Journal of Medicinal Chemistry, 2019).

Legend:
Test in all cases: KINOMEscan
Type in all cases: binding
Details in all cases: read-out: % control activity remaining
[1] = target: T1, RIOK1 (Homo sapiens, UniProt Q9BRS2)
T1 construct: purchased Eurofins DiscoverX KINOMEscan
T1 sequence (Q9BRS2 1-568): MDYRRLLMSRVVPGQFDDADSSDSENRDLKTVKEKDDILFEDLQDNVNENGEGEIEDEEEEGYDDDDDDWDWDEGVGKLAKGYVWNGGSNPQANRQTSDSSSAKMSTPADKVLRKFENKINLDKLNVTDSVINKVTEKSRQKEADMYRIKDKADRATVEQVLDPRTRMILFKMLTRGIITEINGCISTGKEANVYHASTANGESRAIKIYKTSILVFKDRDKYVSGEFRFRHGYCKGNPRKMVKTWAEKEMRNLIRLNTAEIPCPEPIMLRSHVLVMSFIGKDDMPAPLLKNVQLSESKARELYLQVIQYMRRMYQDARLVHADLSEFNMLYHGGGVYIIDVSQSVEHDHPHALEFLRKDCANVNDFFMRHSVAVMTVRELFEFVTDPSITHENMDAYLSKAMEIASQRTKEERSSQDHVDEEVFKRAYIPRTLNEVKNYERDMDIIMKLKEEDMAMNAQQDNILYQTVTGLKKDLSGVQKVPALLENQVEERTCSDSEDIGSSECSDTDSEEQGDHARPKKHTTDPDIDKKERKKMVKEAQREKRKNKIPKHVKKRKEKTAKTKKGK

[2] = target: T2, PCTK3 (Homo sapiens, UniProt Q07002)
T2 construct: purchased Eurofins DiscoverX KINOMEscan

[3] = target: T3, EPHA3 (Homo sapiens, UniProt P29320)
T3 construct: purchased Eurofins DiscoverX KINOMEscan
T3 sequence (P29320 21-983): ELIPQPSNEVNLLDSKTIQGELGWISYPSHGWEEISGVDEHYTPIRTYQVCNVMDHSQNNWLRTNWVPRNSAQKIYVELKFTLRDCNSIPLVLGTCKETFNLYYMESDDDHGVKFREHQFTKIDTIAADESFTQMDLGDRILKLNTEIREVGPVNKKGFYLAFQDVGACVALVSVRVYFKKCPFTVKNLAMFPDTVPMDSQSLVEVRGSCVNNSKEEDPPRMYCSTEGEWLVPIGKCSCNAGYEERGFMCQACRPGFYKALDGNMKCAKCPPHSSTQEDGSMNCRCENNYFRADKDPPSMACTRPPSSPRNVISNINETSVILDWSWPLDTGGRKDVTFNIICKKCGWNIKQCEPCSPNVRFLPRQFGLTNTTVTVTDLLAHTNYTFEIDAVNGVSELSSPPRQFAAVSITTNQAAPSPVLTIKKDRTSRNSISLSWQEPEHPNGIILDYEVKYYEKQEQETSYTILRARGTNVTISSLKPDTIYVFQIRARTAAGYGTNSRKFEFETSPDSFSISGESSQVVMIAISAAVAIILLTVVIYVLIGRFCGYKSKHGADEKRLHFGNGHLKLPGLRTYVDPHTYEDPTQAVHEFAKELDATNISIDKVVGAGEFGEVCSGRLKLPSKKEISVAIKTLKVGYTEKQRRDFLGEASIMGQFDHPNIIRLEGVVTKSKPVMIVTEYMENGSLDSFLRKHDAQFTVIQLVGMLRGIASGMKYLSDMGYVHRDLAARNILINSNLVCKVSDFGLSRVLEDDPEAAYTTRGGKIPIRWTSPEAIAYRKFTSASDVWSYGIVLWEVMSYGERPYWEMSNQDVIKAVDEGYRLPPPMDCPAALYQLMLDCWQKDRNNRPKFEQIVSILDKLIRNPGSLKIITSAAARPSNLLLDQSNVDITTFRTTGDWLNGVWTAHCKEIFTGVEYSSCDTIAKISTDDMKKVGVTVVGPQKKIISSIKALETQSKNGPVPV

[4] = target: T4, FLT3 (Homo sapiens, UniProt P36888)
T4 construct: purchased Eurofins DiscoverX KINOMEscan
T4 sequence (P36888 27-993): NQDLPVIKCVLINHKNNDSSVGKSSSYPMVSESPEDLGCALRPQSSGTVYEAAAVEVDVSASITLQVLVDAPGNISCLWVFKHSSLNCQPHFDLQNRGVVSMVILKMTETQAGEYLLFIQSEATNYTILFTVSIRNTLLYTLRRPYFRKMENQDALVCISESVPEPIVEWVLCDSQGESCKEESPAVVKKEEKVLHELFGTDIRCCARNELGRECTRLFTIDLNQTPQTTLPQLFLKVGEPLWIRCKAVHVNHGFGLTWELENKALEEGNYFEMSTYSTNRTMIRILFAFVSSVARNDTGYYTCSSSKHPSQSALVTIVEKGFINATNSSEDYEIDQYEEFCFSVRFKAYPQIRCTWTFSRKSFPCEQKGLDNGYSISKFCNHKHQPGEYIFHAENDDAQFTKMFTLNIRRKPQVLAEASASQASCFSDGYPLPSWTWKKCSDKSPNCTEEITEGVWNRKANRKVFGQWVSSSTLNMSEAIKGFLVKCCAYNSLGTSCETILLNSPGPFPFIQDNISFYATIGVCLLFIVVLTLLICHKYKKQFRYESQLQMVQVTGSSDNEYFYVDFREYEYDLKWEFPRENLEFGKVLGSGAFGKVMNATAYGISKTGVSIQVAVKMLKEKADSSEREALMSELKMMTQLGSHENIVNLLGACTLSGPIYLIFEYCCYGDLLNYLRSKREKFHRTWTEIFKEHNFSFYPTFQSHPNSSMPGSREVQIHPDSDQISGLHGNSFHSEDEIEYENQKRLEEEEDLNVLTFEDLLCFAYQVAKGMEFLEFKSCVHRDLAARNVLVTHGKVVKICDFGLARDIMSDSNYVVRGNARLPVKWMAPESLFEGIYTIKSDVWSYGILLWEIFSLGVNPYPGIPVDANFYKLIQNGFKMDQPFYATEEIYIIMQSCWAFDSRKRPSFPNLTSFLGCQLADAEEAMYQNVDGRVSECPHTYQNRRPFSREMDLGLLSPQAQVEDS

[5] = target: T5, CLK3 (Homo sapiens, UniProt P49761)
T5 construct: purchased Eurofins DiscoverX KINOMEscan

[6] = target: T6, PIK3CA(H1047L) (Homo sapiens, UniProt P42336, H1047L)
T6 construct: purchased Eurofins DiscoverX KINOMEscan

[7] = target: T7, ERN1 (Homo sapiens, UniProt O75460)
T7 construct: purchased Eurofins DiscoverX KINOMEscan

[8] = target: T8, p38-alpha (Homo sapiens, UniProt Q16539)
T8 construct: purchased Eurofins DiscoverX KINOMEscan

[9] = target: T9, RSK1(Kin.Dom.1-N-terminal) (Homo sapiens, UniProt Q15418)
T9 construct: RSK1(Kin.Dom.1-N-terminal); purchased Eurofins DiscoverX KINOMEscan

[10] = target: T10, ABL1(H396P)-phosphorylated (Homo sapiens, UniProt P00519, H396P)
T10 construct: purchased Eurofins DiscoverX KINOMEscan

T2 sequence (Q07002 whole entry): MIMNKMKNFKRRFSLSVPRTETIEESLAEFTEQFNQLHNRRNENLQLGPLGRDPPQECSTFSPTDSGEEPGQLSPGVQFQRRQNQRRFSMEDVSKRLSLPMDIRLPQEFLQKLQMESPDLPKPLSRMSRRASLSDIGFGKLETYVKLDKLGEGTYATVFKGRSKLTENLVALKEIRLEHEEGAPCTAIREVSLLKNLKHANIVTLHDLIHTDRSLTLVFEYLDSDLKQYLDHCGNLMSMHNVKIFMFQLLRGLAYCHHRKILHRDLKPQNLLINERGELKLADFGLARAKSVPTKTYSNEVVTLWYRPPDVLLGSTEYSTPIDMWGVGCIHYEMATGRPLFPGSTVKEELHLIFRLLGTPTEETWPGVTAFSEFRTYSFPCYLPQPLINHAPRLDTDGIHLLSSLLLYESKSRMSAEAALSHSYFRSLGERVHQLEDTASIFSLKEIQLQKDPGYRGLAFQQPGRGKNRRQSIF
T6 sequence (P42336 whole entry H1047L): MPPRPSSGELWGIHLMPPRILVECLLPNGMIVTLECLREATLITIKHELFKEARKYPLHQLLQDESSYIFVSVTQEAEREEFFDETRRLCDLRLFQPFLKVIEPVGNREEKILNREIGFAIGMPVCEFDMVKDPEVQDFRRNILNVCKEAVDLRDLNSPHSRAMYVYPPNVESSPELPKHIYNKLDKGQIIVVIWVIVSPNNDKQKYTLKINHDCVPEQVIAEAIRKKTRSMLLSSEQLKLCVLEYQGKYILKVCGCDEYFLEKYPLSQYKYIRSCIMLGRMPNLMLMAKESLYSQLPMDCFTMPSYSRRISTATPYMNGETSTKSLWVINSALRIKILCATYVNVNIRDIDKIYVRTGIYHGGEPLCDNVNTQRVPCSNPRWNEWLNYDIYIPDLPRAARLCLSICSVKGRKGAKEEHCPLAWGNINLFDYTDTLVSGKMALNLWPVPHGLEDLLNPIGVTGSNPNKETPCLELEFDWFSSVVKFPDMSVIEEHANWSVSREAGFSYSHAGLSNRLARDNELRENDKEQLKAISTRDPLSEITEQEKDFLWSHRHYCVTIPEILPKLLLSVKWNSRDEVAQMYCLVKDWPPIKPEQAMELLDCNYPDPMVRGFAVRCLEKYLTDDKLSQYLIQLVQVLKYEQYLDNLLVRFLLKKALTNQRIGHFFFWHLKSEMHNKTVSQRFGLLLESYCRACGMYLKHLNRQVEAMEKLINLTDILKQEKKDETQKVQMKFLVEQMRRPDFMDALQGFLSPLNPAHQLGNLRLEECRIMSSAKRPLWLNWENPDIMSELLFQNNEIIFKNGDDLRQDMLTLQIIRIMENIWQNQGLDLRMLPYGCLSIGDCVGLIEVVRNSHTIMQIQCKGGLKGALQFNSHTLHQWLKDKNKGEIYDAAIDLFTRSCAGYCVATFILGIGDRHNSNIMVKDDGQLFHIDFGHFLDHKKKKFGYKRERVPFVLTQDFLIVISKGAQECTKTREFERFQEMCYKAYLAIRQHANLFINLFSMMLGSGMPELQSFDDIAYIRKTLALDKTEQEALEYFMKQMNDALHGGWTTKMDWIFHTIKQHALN
T5 sequence (P49761 whole entry): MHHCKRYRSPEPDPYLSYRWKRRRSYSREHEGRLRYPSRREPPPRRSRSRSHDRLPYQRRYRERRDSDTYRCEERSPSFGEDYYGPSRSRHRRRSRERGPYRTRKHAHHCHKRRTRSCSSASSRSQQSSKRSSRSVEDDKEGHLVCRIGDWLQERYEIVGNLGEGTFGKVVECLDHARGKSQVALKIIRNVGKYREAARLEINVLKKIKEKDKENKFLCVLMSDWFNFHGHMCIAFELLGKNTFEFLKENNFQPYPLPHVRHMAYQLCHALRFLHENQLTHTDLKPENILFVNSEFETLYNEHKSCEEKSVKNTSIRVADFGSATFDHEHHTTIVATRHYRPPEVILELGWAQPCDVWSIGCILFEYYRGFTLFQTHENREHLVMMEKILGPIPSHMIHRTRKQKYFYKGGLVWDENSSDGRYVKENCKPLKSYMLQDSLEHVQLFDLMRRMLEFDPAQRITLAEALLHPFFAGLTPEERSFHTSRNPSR
T9 sequence (Q15418 62-321 limits assumed): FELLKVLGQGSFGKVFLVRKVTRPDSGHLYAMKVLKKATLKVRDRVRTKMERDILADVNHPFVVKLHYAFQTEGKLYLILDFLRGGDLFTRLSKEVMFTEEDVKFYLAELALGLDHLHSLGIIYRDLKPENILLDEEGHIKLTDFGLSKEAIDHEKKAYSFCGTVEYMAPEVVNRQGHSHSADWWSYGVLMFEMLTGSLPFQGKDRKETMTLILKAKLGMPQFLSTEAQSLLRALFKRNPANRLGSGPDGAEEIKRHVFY
T7 sequence (O75460 19-977): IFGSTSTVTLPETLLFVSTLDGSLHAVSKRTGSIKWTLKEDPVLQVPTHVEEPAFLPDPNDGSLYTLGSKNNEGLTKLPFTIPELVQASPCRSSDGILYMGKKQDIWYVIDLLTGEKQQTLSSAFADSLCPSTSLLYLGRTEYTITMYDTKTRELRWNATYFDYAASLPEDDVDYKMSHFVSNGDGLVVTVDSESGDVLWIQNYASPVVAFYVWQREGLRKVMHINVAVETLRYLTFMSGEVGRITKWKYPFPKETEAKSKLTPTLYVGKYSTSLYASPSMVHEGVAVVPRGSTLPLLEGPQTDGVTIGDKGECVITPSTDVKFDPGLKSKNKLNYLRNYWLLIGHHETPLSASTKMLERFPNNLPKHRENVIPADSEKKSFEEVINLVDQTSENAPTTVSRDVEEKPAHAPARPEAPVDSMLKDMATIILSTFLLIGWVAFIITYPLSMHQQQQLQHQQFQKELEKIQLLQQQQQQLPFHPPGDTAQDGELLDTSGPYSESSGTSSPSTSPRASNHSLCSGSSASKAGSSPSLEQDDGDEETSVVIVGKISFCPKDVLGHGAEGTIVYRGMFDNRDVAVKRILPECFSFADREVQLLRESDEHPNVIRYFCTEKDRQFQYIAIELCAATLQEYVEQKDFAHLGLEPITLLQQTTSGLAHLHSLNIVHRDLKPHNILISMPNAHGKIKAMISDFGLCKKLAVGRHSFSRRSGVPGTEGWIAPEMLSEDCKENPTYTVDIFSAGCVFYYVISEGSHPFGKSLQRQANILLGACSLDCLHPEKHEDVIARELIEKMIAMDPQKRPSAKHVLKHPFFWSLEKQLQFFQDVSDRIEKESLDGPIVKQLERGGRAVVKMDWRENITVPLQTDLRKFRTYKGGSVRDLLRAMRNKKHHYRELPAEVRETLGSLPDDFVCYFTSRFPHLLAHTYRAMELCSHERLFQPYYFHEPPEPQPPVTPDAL
T8 sequence (Q16539 whole entry): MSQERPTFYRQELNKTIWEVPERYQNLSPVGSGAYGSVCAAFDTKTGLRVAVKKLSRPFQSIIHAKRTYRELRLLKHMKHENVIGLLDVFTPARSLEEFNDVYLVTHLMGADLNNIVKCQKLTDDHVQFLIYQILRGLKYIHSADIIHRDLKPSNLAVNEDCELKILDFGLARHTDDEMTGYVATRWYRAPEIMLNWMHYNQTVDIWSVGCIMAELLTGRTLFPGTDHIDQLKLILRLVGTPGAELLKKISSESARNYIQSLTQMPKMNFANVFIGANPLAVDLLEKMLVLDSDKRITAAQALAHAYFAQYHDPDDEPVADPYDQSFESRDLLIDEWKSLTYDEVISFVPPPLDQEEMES

## Clc1cc(NCC2CC2)c2ncc(-c3ccc4[nH]ncc4c3)n2n1 [compound 2, 6-Chloro-N-(cyclopropylmethyl)-3-(1H-indazol-5-yl)imidazo[1,2-b]pyridazin-8-amine]
[1]
  remaining binding at 1 µM: 35%
[2]
  remaining binding at 1 µM: 79%
[3]
  remaining binding at 1 µM: 78%
[4]
  remaining binding at 1 µM: 2.5%
[5]
  remaining binding at 1 µM: 70%
[6]
  remaining binding at 1 µM: 95%
[7]
  remaining binding at 1 µM: 69%
[8]
  remaining binding at 1 µM: 100%
[9]
  remaining binding at 1 µM: 72%
[10]
  remaining binding at 1 µM: 73%

## O=C(CN1CCOCC1)N[C@H]1CC[C@H](Nc2cc(Cl)nn3c(-c4ccc5[nH]ncc5c4)cnc23)CC1 [compound 26]
[1]
  remaining binding at 1 µM: 33%
[2]
  remaining binding at 1 µM: 80%
[3]
  remaining binding at 1 µM: 88%
[4]
  remaining binding at 1 µM: 3%
[5]
  remaining binding at 1 µM: 52%
[6]
  remaining binding at 1 µM: 98%
[7]
  remaining binding at 1 µM: 41%
[8]
  remaining binding at 1 µM: 99%
[9]
  remaining binding at 1 µM: 54%
[10]
  remaining binding at 1 µM: 46%

## CN1CCC(CNc2cc(Cl)nn3c(-c4cc5nc(Nc6ccccc6)[nH]c5cc4F)cnc23)CC1 [compound 31, 6-Chloro-3-(6-fluoro-2-(phenylamino)-1H-benzo[d]imidazol-5-yl)-N-((1-methylpiperidin-4-yl)methyl)imidazo[1,2-b]pyridazin-8-amine]
[1]
  remaining binding at 1 µM: 88%
[2]
  remaining binding at 1 µM: 88%
[3]
  remaining binding at 1 µM: 100%
[4]
  remaining binding at 1 µM: 83%
[5]
  remaining binding at 1 µM: 100%
[6]
  remaining binding at 1 µM: 70%
[7]
  remaining binding at 1 µM: 33%
[8]
  remaining binding at 1 µM: 95%
[9]
  remaining binding at 1 µM: 100%
[10]
  remaining binding at 1 µM: 67%
